The source of these data is patent US6825173B2, “Preparation of fagopyritols and uses therefor” (Cornell Research Foundation, Inc., priority 1997, dated 2004).

Series [1] concerns human fecal microflora. Briefly: In vitro fermentation of fagopyritol-enriched buckwheat extract by human fecal microflora. It is filed as in vitro ADME. As to conditions: 40° C.; for concentration of inositols and fagopyritols: anaerobic. The method, then: Fermentation tests were done with fagopyritol-enriched Birkett Mills buckwheat extract that had previously been treated with dry granular baking yeast. Yeast cells were removed by centrifugation (10 minutes at 19K rpm using a Sorvall refrigerated centrifuge) and ultrafiltration (Amicon filtration device, 10, 000 MW cut-off). The fagopyritol water extract was boiled under carbon dioxide to sterilize and remove all other gases.
Anaerobic conditions were maintained during the preparation of fecal inoculum and of all samples by working under streams of carbon dioxide gas. Fermentation bottles were sealed with rubber stoppers and metal caps.
Fagopyritol substrate was prepared first. Then, 1 ml was placed in all bottles except blanks (duplicate samples plus one control and one blank done for 0, 6, 12, and 24 hours). Next, the nutritive medium was prepared. Control bottles received 1 ml of the medium in place of inoculum. The remaining medium was used to dilute fresh feces 1:12, w/v, prepared as described in Barry et al., “In Vitro Fermentation of Neutral Monosaccharides by Ruminal and Human Fecal Microflora,” Acta Vet Scand, 86 (supplement): 93-95 (1989) and Guillon et al., “Characterization of Residual Fibers from Fermentation of Pea and Apple Fibres by Human Fecal Bacteria,” J. Sci. Food Agric., 68:521-529 (1995), which are hereby incorporated by reference. All samples and blanks were inoculated with 1 ml of fecal inoculum by syringe through the rubber stoppers.
A 40° C. water bath was used for the fermentation which was stopped at the specified times by opening bottles to air and immediately freezing.
The samples were prepared for GC analysis after thawing by centrifuging (microfuge, 8000 rpm) once and then again in 10,000 MW cut-off microfuge tubes. The salts present in those samples containing nutritive medium were removed by passing each sample through Amberlite mixed-bed resin, because salts interfere with TMS-derivitization. Two control samples of the original extract were also passed through the resin to insure that fagopyritols were not removed by the treatment.
A small volume of each (750 μL) was dried with 100 μg of internal standard (phenyl α-D-glucopyranoside) in silyation vials under a stream of nitrogen gas; vials were then placed in a desiccator over P205 overnight.
Trimethylsilyl derivitives were prepared by adding 100 μL of 1:1 pyridine:TMS solution and heating at 70° C. for 30 minutes.
Finally, derivitized samples were analyzed on the GC (HP 5890 Series II; DB-1 column; 0.25 mm i.d., 15 m length, 0.25 μm film thickness).

The test system of series [2] is bovine liver β-D-galactosidase (EC 3.2.1.23). Briefly: Enzymatic hydrolysis with β-galactosidase. In kind it is biochemical. As to conditions: for hydrolysis by β-galactosidase (in words): 0.5 units in 200 μL water at 37° C. for 24 h, products by GC. As to the method:
(§1) Acid and Enzymic Hydrolysis. […] Enzyme protein was removed by filtration (10,000 MW cut-off filter), samples were dried, and products assayed by GC analysis of trimethylsilyl derivatives. Raffinose and lactose (100 μg) were hydrolyzed only by α- or β-D-galactosidase respectively, confirming that both enzymes were active.
(§2) Acid and Enzymic Hydrolysis. […] Enzyme protein was removed by filtration (10,000 MW cut-off filter), samples were dried, and products assayed by GC analysis of trimethylsilyl derivatives. Raffinose and lactose (100 μg) were hydrolyzed by α- or β-D-galactosidase respectively, confirming that both enzymes were active.

Series [3] addresses T1, green coffee bean α-D-galactosidase (EC 3.2.1.22) (Coffea arabica, UniProt Q42656).
T1 construct: desalted green coffee bean α-D-galactosidase (EC 3.2.1.22); purchased Boehringer Mannheim Corporation, Indianapolis, Ind; host or cells: green coffee bean
Description: Enzymatic hydrolysis with α-galactosidase. The following applies: for hydrolysis by α-galactosidase (in words): 1.25 units desalted enzyme in 200 μL water at 22° C. (Examples 22, 23), products by GC. It is filed as biochemical. As to the method:
Enzymatic Digestion. One ml of green coffee bean α-galactosidase (EC 3.2.1.22) (Boehringer Mannheim Corporation, Indianapolis, Ind.) in 3.2 M ammonium sulfate was dialyzed overnight against 1000 ml of distilled water to remove the ammonium sulfate that interferes with the silylation reaction and causes variable results. […] After 24 h, 0.2 ml of absolute ethanol and 100 μg of internal standard were added. The mixture was heated to 90° C. for 5 min to inactivate the enzyme and centrifuged through a 10,000 Mr cutoff filter. The filtrate was evaporated to dryness in a stream of nitrogen gas, silylated, and analyzed by gas chromatography as above.
as §1, §2

Where [4] appears, read: Controls (nutritive medium in place of fecal inoculum), 0 hrs.
Where [5] appears, read: Controls (nutritive medium in place of fecal inoculum), 6 hrs.
Where [6] appears, read: Controls (nutritive medium in place of fecal inoculum), 12 hrs.
[7] abbreviates: Samples with human fecal inoculum, 0 hrs.
Setting [8] is: Samples with human fecal inoculum, 6 hrs.
Setting [9] is: Samples with human fecal inoculum, 12 hrs.

T1 sequence (Q42656 16-378): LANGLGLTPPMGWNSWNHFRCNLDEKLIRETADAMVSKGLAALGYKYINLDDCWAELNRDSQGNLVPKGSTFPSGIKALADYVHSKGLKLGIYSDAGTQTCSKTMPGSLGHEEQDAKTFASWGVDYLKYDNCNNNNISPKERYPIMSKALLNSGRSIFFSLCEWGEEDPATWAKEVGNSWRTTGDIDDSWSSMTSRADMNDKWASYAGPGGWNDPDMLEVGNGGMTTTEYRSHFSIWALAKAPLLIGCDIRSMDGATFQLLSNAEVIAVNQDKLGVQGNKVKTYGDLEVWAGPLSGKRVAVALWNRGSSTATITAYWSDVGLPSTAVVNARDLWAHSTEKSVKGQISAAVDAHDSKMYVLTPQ

As for `OCC1O[C@@H](O[C@H]2C(O)C(O)[C@H](O)C(O)C2O)C(O)C(O)[C@H]1O` (stereo partly drawn) [Fagopyritol A1, O-α-D-galactopyranosyl-(1→3)-D-chiro-inositol], the concentration of inositols and fagopyritols in series [1] (setting [4]) came to 88 µg/750 µL; in series [1] (setting [5]), 87 µg/750 µL; in series [1] (setting [6]) it was 94 µg/750 µL; in series [1] (setting [7]), 106 µg/750 µL; in series [1] (setting [8]) it was 0 µg/750 µL; in series [1] (setting [9]), 0 µg/750 µL. Moreover, the “hydrolysis by β-galactosidase (in words)” value in series [2] was “not by β-D-galactosidase”. For the same molecule, the “Enzymic hydrolysis by β-D-galactosidase” value in series [2] (Fagopyritol A and B Series) is recorded as “no”. In series [3], the “hydrolysis by α-galactosidase (in words)” value is given as “hydrolyzed”. Moreover, the “Enzymic hydrolysis by α-D-galactosidase” value in series [3] (Fagopyritol A and B Series) is given as “yes”.
With `OC[C@H]1O[C@H](OC[C@H]2O[C@H](O[C@]3(CO)O[C@H](CO)[C@@H](O)[C@@H]3O)[C@H](O)[C@@H](O)[C@@H]2O)[C@H](O)[C@@H](O)[C@H]1O` [Raffinose, O-α-D-galactopyranosyl-(1→6)-α-D-glucopyranosyl-(1→2)-β-D-fructofuranoside, reference compound], in series [3], the “hydrolysis by α-galactosidase (in words)” value is given as “hydrolyzed”.
Regarding `OC[C@H]1O[C@H](OC2[C@@H](O)[C@H](O)C(O)[C@H](O)[C@@H]2O)[C@H](O)[C@@H](O)[C@H]1O` (stereo partly drawn) [Galactinol (gt1)], the “Enzymic hydrolysis by β-D-galactosidase” value in series [2] (Galactinol Series) is listed as “no”. Also, in series [3] (Galactinol Series), the “Enzymic hydrolysis by α-D-galactosidase” value is given as “yes”.
For the molecule `OCC1OC(OCC2OC(OCC3OC(OC4C(O)C(O)C(O)C(O)C4O)C(O)C(O)C3O)C(O)C(O)C2O)C(O)C(O)C1O` [TGMI, O-α-D-galactopyranosyl-(1→6)-O-α-D-galactopyranosyl-(1→6)-O-α-D-galactopyranosyl-(1→3)-D-myo-inositol], the “hydrolysis by α-galactosidase (in words)” value in series [3] was “completely hydrolyzed”.
For the molecule `OCC1O[C@H](OC2C(O)[C@H](O)C(O)C(O)[C@@H]2O)C(O)C(O)[C@H]1O` (stereo partly drawn) [Fagopyritol B1, O-α-D-galactopyranosyl-(1→2)-D-chiro-inositol], the concentration of inositols and fagopyritols in series [1] (setting [4]) amounted to 667 µg/750 µL; in series [1] (setting [5]), 636 µg/750 µL; in series [1] (setting [6]) it was 605 µg/750 µL; in series [1] (setting [7]) it was 591 µg/750 µL; in series [1] (setting [8]), 0 µg/750 µL; in series [1] (setting [9]) it was 0 µg/750 µL. Besides, the “hydrolysis by β-galactosidase (in words)” value in series [2] is listed as “not by β-D-galactosidase”. Also, the “Enzymic hydrolysis by β-D-galactosidase” value in series [2] (Fagopyritol A and B Series) is given as “no”. Moreover, the “hydrolysis by α-galactosidase (in words)” value in series [3] is given as “hydrolyzed”. The “Enzymic hydrolysis by α-D-galactosidase” value in series [3] (Fagopyritol A and B Series) was “yes”.
For `OCC1O[C@H](OCC2O[C@@H](O[C@H]3C(O)C(O)[C@H](O)C(O)C3O)C(O)C(O)[C@H]2O)C(O)C(O)[C@H]1O` (stereo partly drawn) [Fagopyritol A2, O-α-D-galactopyranosyl-(1→6)-O-α-D-galactopyranosyl-(1→3)-D-chiro-inositol], the concentration of inositols and fagopyritols in series [1] (setting [4]) is 56 µg/750 µL; in series [1] (setting [5]) it was 54 µg/750 µL; in series [1] (setting [6]), 59 µg/750 µL; in series [1] (setting [7]), 54 µg/750 µL; in series [1] (setting [8]) it was 0 µg/750 µL; in series [1] (setting [9]), 0 µg/750 µL. The “hydrolysis by β-galactosidase (in words)” value in series [2] was “not by P-D-galactosidase”. Moreover, the “Enzymic hydrolysis by β-D-galactosidase” value in series [2] (Fagopyritol A and B Series) is “no”. Also, the “hydrolysis by α-galactosidase (in words)” value in series [3] was “hydrolyzed”. The “Enzymic hydrolysis by α-D-galactosidase” value in series [3] (Fagopyritol A and B Series) is “yes”.
In the case of `OC1C(O)C(O)C(O)C(O)C1O` [D-chiro-inositol], the concentration of inositols and fagopyritols in series [1] (setting [4]) turned out to be 99 µg/750 µL; in series [1] (setting [5]), 102 µg/750 µL; in series [1] (setting [6]) it was 58 µg/750 µL; in series [1] (setting [7]), 47 µg/750 µL; in series [1] (setting [8]), 0 µg/750 µL; in series [1] (setting [9]), 0 µg/750 µL.
For `OCC1O[C@H](OCC2O[C@H](OC3C(O)[C@H](O)C(O)C(O)[C@@H]3O)C(O)C(O)[C@H]2O)C(O)C(O)[C@H]1O` (stereo partly drawn) [Fagopyritol B2, O-α-D-galactopyranosyl-(1→6)-O-α-D-galactopyranosyl-(1→2)-D-chiro-inositol], the concentration of inositols and fagopyritols in series [1] (setting [4]) amounted to 83 µg/750 µL; in series [1] (setting [5]), 72 µg/750 µL; in series [1] (setting [6]) it was 66 µg/750 µL; in series [1] (setting [7]), 65 µg/750 µL; in series [1] (setting [8]), 0 µg/750 µL; in series [1] (setting [9]) it was 0 µg/750 µL. Further, the “hydrolysis by β-galactosidase (in words)” value in series [2] is recorded as “not by P-D-galactosidase”. The “Enzymic hydrolysis by β-D-galactosidase” value in series [2] (Fagopyritol A and B Series) was “no”. Moreover, in series [3], the “hydrolysis by α-galactosidase (in words)” value is “hydrolyzed”. The “Enzymic hydrolysis by α-D-galactosidase” value in series [3] (Fagopyritol A and B Series) is “yes”.
Take “O-α-D-galactopyranosyl-(1→6)-O-α-D-galactopyranosyl-(1→6)-O-α-D-galactopyranosyl-(1→3)-D-chiro-inositol [Fagopyritol A3]”: the concentration of inositols and fagopyritols in series [1] (setting [4]) came out at 21 µg/750 µL; in series [1] (setting [5]), 20 µg/750 µL; in series [1] (setting [6]) it was 26 µg/750 µL; in series [1] (setting [7]), 48 µg/750 µL; in series [1] (setting [8]), 0 µg/750 µL; in series [1] (setting [9]) it was 0 µg/750 µL. In series [2], the “hydrolysis by β-galactosidase (in words)” value was “not by P-D-galactosidase”. Further, the “Enzymic hydrolysis by β-D-galactosidase” value in series [2] (Fagopyritol A and B Series) is on record as “no”. For the same molecule, in series [3], the “hydrolysis by α-galactosidase (in words)” value was “hydrolyzed”. Also, the “Enzymic hydrolysis by α-D-galactosidase” value in series [3] (Fagopyritol A and B Series) is “yes”.
As to `O[C@H]1[C@H](O)[C@@H](O)[C@H](O)[C@@H](O)[C@H]1O` [myo-inositol], the concentration of inositols and fagopyritols in series [1] (setting [4]) worked out at 45 µg/750 µL; in series [1] (setting [5]), 48 µg/750 µL; in series [1] (setting [6]), 26 µg/750 µL; in series [1] (setting [7]), 20 µg/750 µL; in series [1] (setting [8]), 0 µg/750 µL; in series [1] (setting [9]), 0 µg/750 µL.
Regarding `OC[C@H]1O[C@H](O[C@H]2O[C@H](CO)[C@@H](O)[C@H](O)[C@H]2O)[C@H](O)[C@@H](O)[C@@H]1O` [trehalose, O-α-D-glucopyranosyl-(1-1′)-O-α-D-glucoside], in series [1] (fermentation of fagopyritol-enriched extract), the “metabolism by fecal bacteria (in words)” value is listed as “metabolized”.
On to `OC[C@H]1O[C@@H](O[C@H]2[C@H](O)[C@@H](O)C(O)O[C@@H]2CO)[C@H](O)[C@@H](O)[C@H]1O` (stereo partly drawn) [lactose, reference compound], for which the “hydrolysis by β-galactosidase (in words)” value in series [2] is listed as “hydrolyzed”.
For the molecule “O-α-D-galactopyranosyl-(1→6)-O-α-D-galactopyranosyl-(1→6)-O-α-D-galactopyranosyl-(1→2)-D-chiro-inositol [Fagopyritol B3]”, the “hydrolysis by α-galactosidase (in words)” value in series [3] is on record as “completely hydrolyzed”. Besides, the “Enzymic hydrolysis by α-D-galactosidase” value in series [3] (Fagopyritol A and B Series) is “yes”.
Consider `OC[C@H]1O[C@H](OC[C@H]2O[C@H](O[C@@H]3[C@@H](O)[C@H](O)[C@@H](O)[C@H](O)[C@@H]3O)[C@H](O)[C@@H](O)[C@H]2O)[C@H](O)[C@@H](O)[C@H]1O` [digalactosyl myo-inositol, O-α-D-galactopyranosyl-(1→6)-O-α-D-galactopyranosyl-(1→3)-D-myo-inositol], for which, in series [2], the “hydrolysis by β-galactosidase (in words)” value is “not by β-galactosidase”. Further, the “hydrolysis by α-galactosidase (in words)” value in series [3] is “completely hydrolyzed”.
